Measurements published in patent US9297813B2, “Targeting metabolic enzymes in human cancer” (Agency for Science, Technology and Research, priority 2010, dated 2016).

How the values were obtained:
[1] = biological target: T1, GLDC (Homo sapiens, UniProt P23378); assay: Victorin: inhibition of GLDC expression, tumour formation and cell proliferation (no method given)
T1 sequence (P23378 36-1020): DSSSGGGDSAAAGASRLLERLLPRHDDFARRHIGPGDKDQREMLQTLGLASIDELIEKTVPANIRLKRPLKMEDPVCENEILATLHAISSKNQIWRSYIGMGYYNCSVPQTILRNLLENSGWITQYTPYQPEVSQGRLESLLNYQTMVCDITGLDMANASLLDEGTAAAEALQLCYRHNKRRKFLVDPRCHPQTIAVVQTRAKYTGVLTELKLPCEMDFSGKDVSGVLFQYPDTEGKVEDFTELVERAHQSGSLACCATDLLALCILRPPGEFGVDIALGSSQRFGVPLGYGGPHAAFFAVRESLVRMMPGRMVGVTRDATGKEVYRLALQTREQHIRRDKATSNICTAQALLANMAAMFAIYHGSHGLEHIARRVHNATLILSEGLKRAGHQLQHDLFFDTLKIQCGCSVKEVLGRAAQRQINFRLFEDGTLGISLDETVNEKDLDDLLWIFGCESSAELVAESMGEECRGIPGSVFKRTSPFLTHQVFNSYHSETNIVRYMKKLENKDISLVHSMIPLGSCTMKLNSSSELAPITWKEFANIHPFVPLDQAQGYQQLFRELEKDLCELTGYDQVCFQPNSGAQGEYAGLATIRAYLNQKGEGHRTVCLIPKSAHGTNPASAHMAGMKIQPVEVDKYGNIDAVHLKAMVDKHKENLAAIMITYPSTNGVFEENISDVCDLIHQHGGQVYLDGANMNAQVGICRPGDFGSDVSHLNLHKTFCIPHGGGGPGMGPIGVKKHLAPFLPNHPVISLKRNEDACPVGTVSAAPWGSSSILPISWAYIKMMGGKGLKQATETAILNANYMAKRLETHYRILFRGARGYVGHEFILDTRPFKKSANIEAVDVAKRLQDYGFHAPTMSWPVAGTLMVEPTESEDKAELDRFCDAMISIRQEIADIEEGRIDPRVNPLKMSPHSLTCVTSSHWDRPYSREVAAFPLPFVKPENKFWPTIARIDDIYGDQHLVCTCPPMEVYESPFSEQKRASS

[2] = tested on: HLF cells; assay: Adherent colony formation with methotrexate, HLF cells overexpressing GLDC; format: cell-based, human; settings: low doses of methotrexate
Procedure: (§1) (E) Effects of the anti-folate drug methotrexate on colony formation after GLDC overexpression or knockdown. 3T3 and HLF cells overexpressing GLDC were plated at clonal density and exposed to varying concentrations of methotrexate for 8 days. A549 cells with GLDC knockdown were plated in soft agar at clonal density and exposed to varying concentrations of methotrexate for 14 days.
(§2) Adherent colony formation was performed by seeding 200-3000 single cells into 10 cm-culture dish and maintained for 10-14 days in DMEM/10% FBS. Colonies were stained by Wright-Giemsa and those colonies containing more than 50 cells were counted. For methotrexate (Sigma) treatment assay, cells were maintained in growth medium containing serial dilution of methotrexate (0, 0.1, 0.2, 0.5, 1, 2, 5, 10, 20 uM) and fresh medium were changed every 3 days.

[3] = tested on: 3T3 cells; assay: Adherent colony formation with methotrexate, 3T3 cells overexpressing GLDC; format: cell-based, mouse; settings: low doses of methotrexate
Procedure: as §1, §2

[4] = tested on: A549 cells; assay: Soft agar colony formation with methotrexate, A549 cells with GLDC knockdown; format: cell-based, human; settings: methotrexate in combination with GLDC shRNA versus either alone, 14 days
[5] = tested on: A549 cells; assay: Soft agar colony formation, sarcosine rescue after GLDC knockdown; format: cell-based, human; settings: 10 μM sarcosine
Procedure: (F) Effects of sarcosine on soft agar colony formation after GLDC knockdown in A549 cells. 1000 cells were seeded in soft agar at clonal density and exposed to 10 μM sarcosine for 14 days.
Soft agar assays were conducted as described previously (Viswanathan et al., 2009). We stained colonies with 1% INT and counted them after 3-4 weeks of growth. For sarcosine rescue experiment, 10 μM of sarcosine (sigma) or PBS were added to top cells layer of agar and growth medium containing sarcosine were changed every 3 days before counting colonies.

[6] = tested on: cytoplasmic and mitochondrial aspartate aminotransferase; settings: cited from earlier work
[7] = biological target: T1, GLDC; settings: cited from earlier work

CC(C[C@H](NC(=O)C(O)O)C(=O)N[C@H](C(=O)N[C@@H]1C(=O)N/C(=C/Cl)C(=O)N[C@H](C(=O)O)CC2=C(CC(O)C2=O)O[C@H]1C(C)C)[C@H](O)CCCN)C(Cl)Cl (some centres unmarked) [Victorin]
inhibition of GLDC expression [1]: able to inhibit GLDC expression | tumour formation and cell proliferation [1]: block or reduced tumour formation and cell proliferation

CN(Cc1cnc2nc(N)nc(N)c2n1)c1ccc(C(=O)N[C@@H](CCC(=O)O)C(=O)O)cc1 [methotrexate]
GLDC-induced proliferation (colony formation) ([2]; HLF cells overexpressing GLDC, 8 days): specifically abrogated GLDC-induced proliferation | effect on control cells ([2]; control HLF cells): little effects | GLDC-induced proliferation (colony formation) ([3]; 3T3 cells overexpressing GLDC, 8 days): specifically abrogated GLDC-induced proliferation | effect on control cells ([3]; control 3T3 cells): little effects | killing of transformed A549 cells [4]: killed transformed A549 cells much more effectively than either alone

CNCC(=O)O [sarcosine, N-methylglycine]
rescue of proliferation defect upon GLDC knockdown ([5]; 14 days, A549 cells with GLDC retroviral knockdown): significantly rescue the proliferation defect | effect on control A549 cells ([5]; control A549 cells): little effect

NOCC(=O)O [Aminooxyacetate, (Aminooxy) acetate]
inhibition of aspartate aminotransferase or glutamate transaminases [6]: powerful inhibitor | GLDC binding and inhibition of GLDC activity [7]: binds to GLDC and inhibits GLDC activity
